Where only a bound is given, the exact number is not on record here.

The target in the assay is T1, DNA polymerase theta [1792-2590] (UniProt O75417).
T1 construct: 1792-2590
T1 sequence (O75417 whole entry): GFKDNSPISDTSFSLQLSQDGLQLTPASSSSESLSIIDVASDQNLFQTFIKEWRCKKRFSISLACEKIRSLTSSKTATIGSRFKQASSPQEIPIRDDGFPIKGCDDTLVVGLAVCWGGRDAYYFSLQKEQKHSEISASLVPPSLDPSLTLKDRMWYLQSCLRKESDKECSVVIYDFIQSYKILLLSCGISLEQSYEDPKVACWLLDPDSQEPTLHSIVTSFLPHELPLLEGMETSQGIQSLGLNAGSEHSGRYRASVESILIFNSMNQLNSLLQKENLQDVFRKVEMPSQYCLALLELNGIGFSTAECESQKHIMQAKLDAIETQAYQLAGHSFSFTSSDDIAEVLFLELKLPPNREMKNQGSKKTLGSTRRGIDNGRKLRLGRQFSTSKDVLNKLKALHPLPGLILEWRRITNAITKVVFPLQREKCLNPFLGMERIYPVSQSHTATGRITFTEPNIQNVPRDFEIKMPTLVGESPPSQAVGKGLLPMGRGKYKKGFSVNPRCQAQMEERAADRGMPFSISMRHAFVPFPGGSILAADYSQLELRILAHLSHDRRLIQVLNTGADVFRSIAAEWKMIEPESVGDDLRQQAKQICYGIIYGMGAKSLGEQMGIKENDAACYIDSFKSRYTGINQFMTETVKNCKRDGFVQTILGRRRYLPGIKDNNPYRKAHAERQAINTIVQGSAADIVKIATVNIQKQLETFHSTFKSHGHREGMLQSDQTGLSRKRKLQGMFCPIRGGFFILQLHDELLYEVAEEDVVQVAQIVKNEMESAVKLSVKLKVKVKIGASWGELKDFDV
Description: ADP-Glo Kinase Assay. Here is the method:
The ability of compounds to inhibit Pol 0 polymerase activity was determined by the PicoGreen method in vitro.The His-TEV-SUMO-tagged Polθ protein (amino acids 1792-2590) expressed in E. coli was purified and stored in aliquots at −80° C.The composition of the assay buffer is 25 mM Tris HCl pH 7.5, 12.5 mM NaCl, 0.5 mM MgCl2, 5% glycerol, 0.01% Triton X-100, 0.01% BSA, and 1 mM DTT.Test compounds were diluted in 100% DMSO and diluted three-fold into 10 concentration points in a dilution plate (Greiner-781280) using Bravo (Agilent) according to concentration requirements. The compounds diluted in DMSO were then diluted 20-fold in the assay buffer using Bravo. Further, 2 μl of diluted compounds were transferred to the assay plate (Corning-4512) using Bravo. The purified Pol 0 enzyme and primers ((primer strand: 5′-GCGGCTGTCATAAG-3′, SEQ ID NO: 1):(template strand: 5′-[…]-3′, SEQ ID NO: 2)=1:1.1) were prepared at a working concentration of 2.5× (1.5 nM Polθ and 50 nM PTD) in the assay buffer, transferred to the assay plate at 4 μl per well using an E1-CLIPTIP 12-channel pipette (Thermo, 1-30 l), and incubated at room temperature for 30 min. dNTP (Sigma-D7295) was diluted with the assay buffer to a working concentration of 2.5× (40 uM dNTP), transferred to the assay plate at 4 μl per well (final DMSO concentration of 1%) using an El-CLIPTIP 12-channel pipette (Thermo, 1-30 l), and incubated at room temperature for 60 min. A mixture containing 10 mM EDTA, 25 mM Tris pH 7.5, and a 1:200 diluted PicoGreen dye (Invitrogen-P7581) was added to the assay plate at 6 μl per well to stop the reaction. After 30 min of reaction at room temperature in the dark, fluorescence values were read on EnVision 2105 (PerkinElmer) using the Ex480 nm Em520 nm program, and the raw data was analyzed using XLfit to generate IC50 values.
What is called IC50 is the midpoint of a concentration-inhibition curve. As for `CN(C(=O)[C@@H]1CNC(=O)N1c1cc(C(F)(F)F)c2c(n1)C=CC2)c1ccc(F)c(Cl)c1F` [US20250066368, Compound 21], the IC50 is < 50 nM.

As for `CN(C(=O)[C@@H]1[C@H](O)[C@H](O)C(=O)N1c1cc(C(F)(F)F)c2c(n1)CCC2)c1cc(Cl)c(F)cc1F` [US20250066368, Compound 7], the IC50 is < 50 nM. As for `[2H]C([2H])([2H])N(C(=O)[C@@H]1[C@H](O)[C@H](O)C(=O)N1c1cc(C(F)(F)F)c2c(n1)CC=C2)c1cc(Cl)c(F)cc1F` [US20250066368, Compound 19], the IC50 is < 50 nM.

With `[2H]C([2H])([2H])N(C(=O)[C@@H]1[C@H](O)[C@H](O)C(=O)N1c1cc(C(F)(F)F)c2c(n1)C(=O)CC2)c1cc(Cl)c(F)cc1F` [US20250066368, Compound 45], the IC50 was < 50 nM. `[2H]C([2H])([2H])N(C(=O)C1[C@H](O)[C@H](O)C(=O)N1c1cc(C(F)(F)F)c2ccsc2n1)c1cc(Cl)c(F)cc1F` (some centres not stated) [US20250066368, Compound 16]: the IC50 was < 50 nM. Turning to `[2H]C([2H])([2H])N(C(=O)[C@@H]1[C@H](O)[C@H](O)C(=O)N1c1cc(C(F)(F)F)c2cc[se]c2n1)c1cc(Cl)c(F)cc1F` [US20250066368, Compound 46], the IC50 was < 50 nM.

As for `[2H]C([2H])([2H])N(C(=O)[C@@H]1[C@H](O)[C@H](O)C(=O)N1c1cc(C(F)(F)F)c2ncsc2n1)c1cc(Cl)c(F)cc1F` [US20250066368, Compound 26], the IC50 is < 50 nM.

The values are drawn from BindingDB's records for patent US20250066368 (Shanghai Apeiron Therapeutics Company, 2025).
